Test results reported in BindingDB's records for doi:10.1016/0014-2999(93)90722-t (Sanofi Recherche, 1993).
“And” between values parts separate entries of the source, which are not always exact repeats. Equal values may be shown once. Where a SMILES comes first, the peptide text is derived from it. [ ]: non-standard residue; d: D form. sY = N[C@@H](Cc1ccc(OS(=O)(=O)O)cc1)C(=O)O

How the values were obtained:
[1] = target: T1, Gastrin/cholecystokinin type B receptor (Rattus norvegicus, UniProt P30553)
T1 sequence (P30553 whole entry): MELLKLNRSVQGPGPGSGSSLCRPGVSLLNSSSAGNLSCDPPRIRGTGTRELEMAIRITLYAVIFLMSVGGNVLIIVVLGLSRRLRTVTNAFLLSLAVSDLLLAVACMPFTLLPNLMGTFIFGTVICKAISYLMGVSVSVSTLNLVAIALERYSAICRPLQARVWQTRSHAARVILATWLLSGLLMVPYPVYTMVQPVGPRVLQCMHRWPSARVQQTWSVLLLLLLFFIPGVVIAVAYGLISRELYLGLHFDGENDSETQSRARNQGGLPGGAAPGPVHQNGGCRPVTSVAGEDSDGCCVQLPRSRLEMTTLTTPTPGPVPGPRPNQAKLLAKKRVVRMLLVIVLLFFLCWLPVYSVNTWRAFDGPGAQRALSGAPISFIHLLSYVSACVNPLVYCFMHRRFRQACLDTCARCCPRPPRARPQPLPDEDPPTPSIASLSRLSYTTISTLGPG

Compound | Ki [1] | Ki
O=C(O)Cn1c(C(=O)Nc2nc(-c3ccccc3Cl)cs2)cc2ccccc21 [CAS_122077] | 0.00058 µM | 0.489 µM and 2.88 µM
CSCC[C@H](NC(=O)[C@H](CC(C)C)NC(=O)[C@H](Cc1cnc[nH]1)NC(=O)CNC(=O)[C@@H](NC(=O)[C@H](C)NC(=O)[C@H](Cc1c[nH]c2ccccc12)NC(=O)[C@H](Cc1cnc[nH]1)NC(=O)[C@H](CC(N)=O)NC(=O)CN)C(C)C)C(N)=O [NSC_5486814] | – | 0.024 µM
CC[C@H](C)[C@H](NC(=O)[C@H](CCCNC(=N)N)NC(=O)[C@H](Cc1c[nH]cn1)NC(=O)[C@H](CO)NC(=O)[C@@H]1CCCN1C(=O)[C@H](CC(=O)O)NC(=O)[C@H](CC(C)C)NC(=O)[C@H](CC(N)=O)NC(=O)[C@H](CCC(N)=O)NC(=O)[C@H](CC(C)C)NC(=O)[C@H](CC(N)=O)NC(=O)[C@H](CCCCN)NC(=O)[C@@H](NC(=O)[C@@H](NC(=O)[C@H](CO)NC(=O)[C@H](CCSC)NC(=O)[C@H](CCCNC(=N)N)NC(=O)CNC(=O)[C@H](CO)NC(=O)[C@@H]1CCCN1C(=O)[C@H](C)NC(=O)[C@@H](N)CCCCN)[C@@H](C)CC)C(C)C)C(=O)N[C@@H](CO)C(=O)N[C@@H](CC(=O)O)C(=O)N[C@@H](CCCNC(=N)N)C(=O)N[C@@H](CC(=O)O)C(=O)N[C@@H](Cc1ccc(OS(=O)(=O)O)cc1)C(=O)N[C@@H](CCSC)C(=O)NCC(=O)N[C@@H](Cc1c[nH]c2ccccc12)C(=O)N[C@@H](CCSC)C(=O)N[C@@H](CC(=O)O)C(=O)N[C@@H](Cc1ccccc1)C(N)=O [CHOLECYSTOKININ] (H-KAPSGRMSIVKNLQNLDPSHRISDRD[sY]MGWMDF-NH2) | – | 0.00062 µM
CN1C(=O)[C@@H](NC(=O)c2cc3ccccc3[nH]2)N=C(c2ccccc2)c2ccccc21 [1H-Indole-2-carboxylic acid (1-methyl-2-oxo-5-phenyl-2,3-dihydro-1H-benzo[e][1,4]diazepin-3-yl)-amide: 0.1C4H10O. 0.15CH2Cl2] | – | 0.275 µM and 0.195 µM
